Test results: ChEMBL document CHEMBL1781916, “p38alpha mitogen-activated protein kinase inhibitors: optimization of a series of biphenylamides to give a molecule suitable for clinical progression” (J Med Chem, 2009)
Blank lines part the entries; values can stand above or below the molecule they belong to.

Key:
[1] = Half life in Lewis rat at 1 mg/kg, iv; type: ADME, organism-based; set-up: dose 1 mg/kg, route intravenous; settings: in vivo
[2] = system: Rattus norvegicus; assay: (§1) Clearance in Lewis rat at 1 mg/kg, iv; type: ADME, organism-based; set-up: dose 1 mg/kg, route intravenous; settings: in vivo
[3] = (§2) Oral bioavailability in Lewis rat at 1 mg/kg; type: ADME, organism-based; settings: Lewis, in vivo
[4] = as §1; type: ADME, organism-based; set-up: dose 1 mg/kg, route intravenous; settings: Lewis, in vivo
[5] = AUC in Lewis rat 0.25 mg/kg, po; settings: Lewis, plasma
[6] = Clearance in Lewis rat at 0.25 mg/kg, iv; type: ADME, organism-based; set-up: dose 0.25 mg/kg, route intravenous; settings: in vivo
[7] = Oral bioavailability in Lewis rat at 0.25 mg/kg, po; type: ADME, organism-based; settings: in vivo
[8] = Half life in Lewis rat at 0.25 mg/kg, iv and 0.25 mg/kg, po; type: ADME, organism-based; settings: in vivo
[9] = Oral bioavailability in cynomolgus monkey at 1.4 mg/kg; type: ADME, organism-based, Macaca fascicularis; settings: in vivo
[10] = system: Rattus norvegicus; assay: Volume of distribution at steady state in Lewis rat at 1 mg/kg, iv; type: ADME, organism-based; set-up: dose 1 mg/kg, route intravenous; settings: in vivo
[11] = system: Rattus norvegicus; assay: as §2; type: ADME, organism-based; settings: in vivo
[12] = system: Rattus norvegicus; assay: AUC in Lewis rat 0.25 mg/kg, po; settings: in vivo
[13] = Oral bioavailability in mouse; type: ADME, organism-based; settings: in vivo
[14] = Ratio of drug level in brain to plasma in Lewis rat at 1 mg/kg, iv and 1 mg/kg, po; type: ADME, organism-based; settings: read-out: BPR
[15] = Oral bioavailability in dog; type: ADME, organism-based, Canis lupus familiaris; settings: in vivo

SMILES: Cc1ccc(C(=O)NC2CC2)cc1-c1ccc(C(=O)NCC2CC2)cn1
half-life [1]: 3 h
clearance [2]: 1.5 mL/min/kg
bioavailability [3]: 99%

SMILES: Cc1c(F)cc(C(=O)NC2CC2)cc1-c1ccc(C(=O)N[C@H](C)C(C)(C)C)cn1
AUC [5]: 23 ng·h/mL

SMILES: Cc1c(F)cc(C(=O)NC2CC2)cc1-c1ccc(C(=O)N[C@@H](C)C(C)(C)C)cn1
AUC [5]: 6 ng·h/mL

SMILES: Cc1c(F)cc(C(=O)NC2CC2)cc1-c1ccc(C(=O)NCC(C)(C)C)cn1 [LOSMAPIMOD]
half-life [1]: 1.2 h
bioavailability [9]: 35%
Vdss [10]: 0.9 L/kg
F [11]: 71%
AUC [12]: 220 ng·h/mL
bioavailability [13]: 59%
bioavailability [7]: 51%
Kp [14]: 0.1
bioavailability [15]: 55%
half-life [8]: 1.1 h

Continued, values first:

half-life [1]: 1.9 h
clearance [4]: 2.5 mL/min/kg
bioavailability [3]: > 95%
AUC [5]: 810 ng·h/mL
SMILES: Cc1c(F)cc(C(=O)NC2CC2)cc1-c1ccc(C(=O)NCC2CC2)cn1

clearance [6]: 6.4 mL/min/kg
AUC [5]: 360 ng·h/mL
bioavailability [7]: 56%
half-life [8]: 1.1 h
SMILES: Cc1c(F)cc(C(=O)NC2CC2)cc1-c1ccc(C(=O)NCC(C)C)cn1

AUC [5]: 50 ng·h/mL
SMILES: Cc1c(F)cc(C(=O)NC2CC2)cc1-c1ccc(C(=O)N[C@H](C)C(C)C)cn1

AUC [5]: 8 ng·h/mL
SMILES: Cc1c(F)cc(C(=O)NC2CC2)cc1-c1ccc(C(=O)N[C@@H](C)C(C)C)cn1
